# Assay results: publication PMC5601625, “Defining a therapeutic window for kinase inhibitors in leukemia to avoid neutropenia” (Oncotarget, 2017)
# “Also recorded” adds a separate entry of the source. Like-named read-outs stand apart in the source and are kept apart here.
# How the values were obtained:
# [1] = test system: panel of human leukemia cell lines; assay: Cell Titer Glo cell viability assay, 48 h, statements across the whole panel; conditions: for cytotoxicity to leukemia cell lines: 12 leukemia cell lines
# Protocol: (§1) The activity of the kinase inhibitor collection against a panel of human leukemia cell lines was determined in cell viability assays run over 48 h using the Cell Titer Glo reagent.
# (§2) Figure 1 Effects of kinase inhibition on the proliferation of leukemia cells A. Human leukemia cell lines were treated with duplicate serial dilutions of kinase inhibitors and the effect on cell viability was determined by Cell Titer Glo assay after 48 hours. Data shown represents the mean IC50 of each condition from 2 independent experiments. HL-60 cells were treated with serial dilutions of mTor/PI3K B. and MEK C. inhibitors and the effect on cell viability was determined after 48 hours. Data shown is the mean ± SEM of 3 independent experiments.
# (§3) Leukemia and lymphoma cell lines were grown in RPMI containing 10% FCS. […] Cell lines are routinely tested for mycoplasma and genotyped by short tandem repeating (STR) profiling to confirm identity.
# (§4) Compounds were obtained from SynMedChem and dissolved at […] in DMSO. Serial 2-fold dilutions of each compound were prepared in DMSO using a liquid handling robot (Janus, Perkin Elmer). Each dilution (100nL) was transferred to duplicate tissue culture plates containing 50 μL of media containing 5 × 10^3 cells using a 384 well pin tool. Cells were incubated for 48 h and cell viability was determined using Cell Titer Glow reagents as described by the manufacturer (Promega). Data was acquired using a luminescent plate reader (Envision, Perkin Elmer) and analysed using Activity Base (IDBS, Guilford, UK) and visualised using Spotfire (TIBCO, Palo Alto, CA) as described previously. Each cell line was assayed in independent experiments on at least two occasions. […] Serial 2-fold dilutions of each compound were prepared in media containing 0.2% DMSO and 50 μl of each dilution was added to 10^4 cells in 50 μl of media. Cells were incubated for 48 h and cell viability was determined using Cell Titer Glow assay as described above.
# [2] = test system: human peripheral blood neutrophils; assay: Human neutrophil viability by propidium iodide exclusion, flow cytometry; conditions: for sensitivity of human neutrophils at 1μM: 18 h; for sensitivity of human neutrophils: G-CSF or GM-CSF primed 1 h, treated 18 h, dose range
# Protocol: Figure 3 Assessment of human neutrophil viability in response to kinase inhibitor treatment Human peripheral blood neutrophils from three healthy donors were primed with G-CSF or GM-CSF for 1 hour before addition of selected kinase inhibitors (as shown) or DMSO (control) at concentrations as indicated. Neutrophil viability was assessed after 18 hours of treatment, by propidium iodide exclusion measured by flow cytometry. Mean ± SEM shown.
# Donors were 18 years of age or older and had not taken anti-inflammatory medications during the 2 weeks before donating. […] Human neutrophils were then isolated on a three-layer Percoll gradient as described for mouse bone marrow neutrophils as described. […] Neutrophils were resuspended in DMEM/10%FBS, and primed with 10 ng/mL recombinant human G-CSF (Amgen) or 10 ng/mL recombinant human GM-CSF (Leukine, Sargramostim) for 1 h. Compounds or DMSO carrier were added for […]. Viability was assessed by staining neutrophils with propidium iodide and analyzing on a BD Fortessa.
# [3] = test system: primary murine bone-marrow neutrophils; assay: Live cell imaging viability of primary bone-marrow neutrophils; conditions: for effect on mouse neutrophil viability (words): G-CSF- or GM-CSF-primed, inhibitors at 1 μM, over 24 hours; for effect of chemotherapeutics on neutrophil viability: GM-CSF-primed, dose-dependent, Figure 5D
# Text: Using a high-throughput live cell imaging approach reported previously [15], we examined the effect of the kinase inhibitors on the viability of bone marrow neutrophils to determine their potential to cause neutropenia (Figure 2). Because G-CSF and GM-CSF are dominant regulators of granulopoiesis and neutrophil survival, and are commonly used in a clinical setting to mobilize hematopoietic stem cells into the blood and increase neutrophil production [27–31], we treated cells with these cytokines immediately prior to drug exposure. The addition of either cytokine prevents constitutive neutrophil apoptosis thereby increasing the window for detection of changes in viability induced by drug treatments.
# For all above, data represent mean ± SEM from three independent samples.
# Mouse bone marrow neutrophils were prepared as described [15]. Neutrophils were resuspended in phenol red-free DMEM/10% FBS for imaging studies. The purity of neutrophil preparations was routinely 96% ± 4% (Mean ± SD, n = 50) as assessed by cytology following May-Grünwald/Giemsa staining.
# Kinase inhibitors were purchased from SYN kinase (Melbourne, Australia) and were used at 1 μM, unless otherwise specified, with dilutions performed in assay buffer containing 0.1% DMSO.
# Viability was monitored using 2 μg/mL PI (Sigma). Images were captured every 30-60 min by the Zeiss Axiovert 200M Microscope at 37 °C/10% CO2. Quantitative analysis was performed using a custom-scripted MetaMorph (Molecular Devices) journal suite incorporating the count nuclei function, reconstruction & subtraction functions and Integrated Morphometry Analysis to select and analyze cells of interest.
# [4] = test system: primary murine myeloid HPCs (lin-c-Kit+Sca-1- cells); assay: Live cell imaging viability of hematopoietic myeloid progenitor cells
# Text: (C & D) Dose-dependent effects of common chemotherapeutics on GM-CSF-primed primary murine myeloid HPCs C. or GM-CSF-primed primary murine bone-marrow neutrophils D. as assessed by live cell imaging analysis (concentrations as marked). E. Comparison of G-CSF (red/orange) or GM-CSF (blue) priming of myeloid HPCs before treatment with chemotherapeutics as assessed by live cell imaging (concentrations as marked). […] Mean ± SEM with n = 3 independent samples. * p < 0.05.
# For purification of myeloid progenitor cells, bone marrow cells were collected in DMEM/10% FCS. After red cell lysis, cells were stained with biotin-conjugated antibodies against Ter119, Gr-1, Mac-1, B220, CD4, CD8 and IL-7Rα and incubated with streptavidin-microbeads (Miltenyi Biotech). Lineage positive cells were depleted by magnetic separation using MACS LS columns and QuadroMACS^TM separator magnets (Miltenyi Biotech). Hematopoietic myeloid progenitor cells that were propidium iodide (PI) negative, lineage-negative, Sca-1 negative and c-Kit positive, were sorted and collected by flow cytometry on a FACSAria or Diva (BD Biosciences). For imaging studies, cells were resuspended in StemPro-34 SFM (Invitrogen). Cells were cultured in 10 ng/mL human G-CSF (Neupogen, Amgen), 10 ng/mL recombinant mouse GM-CSF or 10 ng/mL recombinant human GM-CSF.
# The MetaMorph script is available upon request.
# [5] = test system: HEL.92.1.7; assay: Cell Titer Glo cell viability assay, 48 h; format: cell-based, human; conditions: 48 h, mean of 2 independent experiments, 0 = less than 10 nM, cell line not given, read-out: IC50 of inhibitors on cell lines, m (mean)
# Protocol: as §1
# as §2, with “Data shown represents the mean IC50 of each condition from 2 independent experiments.” left out
# as §3, §4
# [6] = test system: KU-812; assay: Cell Titer Glo cell viability assay, 48 h; format: cell-based, human; conditions: 48 h, mean of 2 independent experiments, 0 = less than 10 nM, cell line not given, read-out: IC50 of inhibitors on cell lines, m (mean)
# Protocol: as §1
# as §2, with “Data shown represents the mean IC50 of each condition from 2 independent experiments.” left out
# as §3, §4
# [7] = test system: MOLT4; assay: Cell Titer Glo cell viability assay, 48 h; format: cell-based, human; conditions: 48 h, mean of 2 independent experiments, 0 = less than 10 nM, cell line not given, read-out: IC50 of inhibitors on cell lines, m (mean)
# Protocol: as §1
# as §2, with “Data shown represents the mean IC50 of each condition from 2 independent experiments.” left out
# as §3, §4
# [8] = test system: EOL-1; assay: Cell Titer Glo cell viability assay, 48 h; format: cell-based, human; conditions: 48 h, mean of 2 independent experiments, 0 = less than 10 nM, cell line not given, read-out: IC50 of inhibitors on cell lines, m (mean)
# Protocol: as §1
# as §2, with “Data shown represents the mean IC50 of each condition from 2 independent experiments.” left out
# as §3, §4
# [9] = test system: JURKAT; assay: Cell Titer Glo cell viability assay, 48 h; format: cell-based, human; conditions: 48 h, mean of 2 independent experiments, 0 = less than 10 nM, cell line not given, read-out: IC50 of inhibitors on cell lines, m (mean)
# Protocol: as §1
# as §2, with “Data shown represents the mean IC50 of each condition from 2 independent experiments.” left out
# as §3, §4
# [10] = test system: MEG-01; assay: Cell Titer Glo cell viability assay, 48 h; format: cell-based, human; conditions: 48 h, mean of 2 independent experiments, 0 = less than 10 nM, cell line not given, read-out: IC50 of inhibitors on cell lines, m (mean)
# Protocol: as §1
# as §2, with “Data shown represents the mean IC50 of each condition from 2 independent experiments.” left out
# as §3, §4
# [11] = test system: MV4;11; assay: Cell Titer Glo cell viability assay, 48 h; format: cell-based, human; conditions: 48 h, mean of 2 independent experiments, 0 = less than 10 nM, cell line not given, read-out: IC50 of inhibitors on cell lines, m (mean)
# Protocol: as §1
# as §2, with “Data shown represents the mean IC50 of each condition from 2 independent experiments.” left out
# as §3, §4
# [12] = test system: OCI-AML3; assay: Cell Titer Glo cell viability assay, 48 h; format: cell-based, human; conditions: 48 h, mean of 2 independent experiments, 0 = less than 10 nM, cell line not given, read-out: IC50 of inhibitors on cell lines, m (mean)
# Protocol: as §1
# as §2, with “Data shown represents the mean IC50 of each condition from 2 independent experiments.” left out
# as §3, §4
# [13] = test system: U937; assay: Cell Titer Glo cell viability assay, 48 h; format: cell-based, human; conditions: 48 h, mean of 2 independent experiments, 0 = less than 10 nM, cell line not given, read-out: IC50 of inhibitors on cell lines, m (mean)
# Protocol: as §1
# as §2, with “Data shown represents the mean IC50 of each condition from 2 independent experiments.” left out
# as §3, §4
# [14] = test system: K562; assay: Cell Titer Glo cell viability assay, 48 h; format: cell-based, human; conditions: 48 h, mean of 2 independent experiments, 0 = less than 10 nM, cell line not given, read-out: IC50 of inhibitors on cell lines, m (mean)
# Protocol: as §1
# as §2, with “Data shown represents the mean IC50 of each condition from 2 independent experiments.” left out
# as §3, §4
# [15] = test system: THP-1; assay: Cell Titer Glo cell viability assay, 48 h; format: cell-based, human; conditions: 48 h, mean of 2 independent experiments, 0 = less than 10 nM, cell line not given, read-out: IC50 of inhibitors on cell lines, m (mean)
# Protocol: as §1
# as §2, with “Data shown represents the mean IC50 of each condition from 2 independent experiments.” left out
# as §3, §4
# [16] = test system: HL-60; assay: Cell Titer Glo cell viability assay, 48 h; format: cell-based, human; conditions: 48 h, mean of 2 independent experiments, 0 = less than 10 nM, cell line not given, read-out: IC50 of inhibitors on cell lines, m (mean)
# Protocol: as §1
# as §2, with “Data shown represents the mean IC50 of each condition from 2 independent experiments.” left out
# as §3, §4
# [17] = cited from earlier work
# [18] = Homo sapiens, read-out: IC50 across most of the cell lines examined
structure (smiles),measurement,setting,value
CC[C@@H]1C(=O)N(C)c2cnc(Nc3ccc(C(=O)NC4CCN(C)CC4)cc3OC)nc2N1C1CCCC1 [(R)-BI-2536],cytotoxicity to leukemia cell lines,[1],potently cytotoxic to all lines examined
same,IC50,"[1]; Homo sapiens, read-out: IC50 across all cell lines examined",< 0.3 µM
same,IC50,[1]; [18],≤ 0.01 µM
same,sensitivity of human neutrophils at 1μM,[2],not sensitive
same,sensitivity of human neutrophils,[2],sensitive
NC(=O)Nc1cc(-c2cccc(F)c2)sc1C(=O)N[C@H]1CCCNC1 [AZD7762],cytotoxicity to leukemia cell lines,[1],potently cytotoxic to all lines examined
same,IC50,[1]; [18],≤ 0.01 µM
same,sensitivity of human neutrophils at 1μM,[2],not sensitive
same,sensitivity of human neutrophils,[2],sensitive
Cn1c(=O)n(-c2ccc(C(C)(C)C#N)cc2)c2c3cc(-c4cnc5ccccc5c4)ccc3ncc21 [BEZ-235],effect on mouse neutrophil viability (words),[3],minimal impact
same,cytotoxicity to leukemia cell lines,[1],potently cytotoxic to all lines examined
same,IC50,[1]; [18],≤ 0.01 µM
same,sensitivity of human neutrophils at 1μM,[2],not sensitive
same,sensitivity of human neutrophils,[2],sensitive
Cc1ccc([N+](=O)[O-])cc1S(=O)(=O)N(C)/N=C/c1cnc2ccc(Br)cn12 [PIK-75],effect of kinase inhibitors on HPC viability,"[4]; G-CSF- or GM-CSF-primed, 1 μM, over 24 hours",active against both G-CSF- and GM-CSF-treated HPC
same,EC50,"[3]; read-out: EC50 neutrophil viability, Mcl-1+/-, Mcl-1+/- neutrophils, 12 hour time-point",0.057 µM
same,EC50,"[3]; read-out: EC50 neutrophil viability, wild-type, WT neutrophils, 12 hour time-point",0.228 µM
same,cytotoxicity to leukemia cell lines,[1],potently cytotoxic to all lines examined
same,IC50,"[1]; read-out: IC50 across most of the cell lines examined, Cell Titer Glo, most of 12 leukemia lines",≤ 0.01 µM
same,sensitivity of human neutrophils,[2],sensitive
same,IC50,[5],0.08 µM
same,IC50,[6],0.14 µM
same,IC50,[7],0.13 µM
same,IC50,[8],0.04 µM
same,IC50,[9],0.09 µM
same,IC50,[10],0.29 µM
same,IC50,[11],0.01 µM
same,IC50,[12],0.1 µM
same,IC50,[13],0.06 µM
same,IC50,[14],0.33 µM
same,IC50,[15],0.1 µM
same,IC50,[16],0.06 µM
CC(C)(C)c1cnc(CSc2cnc(NC(=O)C3CCNCC3)s2)o1 [SNS-032],dose-limiting side-effect in patients,[17]; patients with chronic lymphocytic leukemia and multiple myeloma,neutropenia as the dose-limiting side-effect
same,effect on mouse neutrophil viability (words),[3],induced rapid cell death; also recorded: significant impact on neutrophil viability
same,EC50,"[3]; Mus musculus, Neutrophil, 12 h, read-out: EC50 neutrophil viability, Bak-/- Bax deficient",> 1 µM
same,EC50,"[3]; Mus musculus, Neutrophil, 12 h, read-out: EC50 neutrophil viability, Mcl-1+/-",0.08 µM
same,EC50,"[3]; Mus musculus, Neutrophil, 12 h, read-out: EC50 neutrophil viability, wild-type",0.182 µM
same,EC50,"[3]; Mus musculus, Neutrophil, read-out: EC50 neutrophil viability, G-CSF primed",0.194 µM
same,EC50,"[3]; Mus musculus, Neutrophil, read-out: EC50 neutrophil viability, GM-CSF primed",0.218 µM
same,sensitivity of human neutrophils,[2],sensitive
same,IC50,[5]; Homo sapiens,1.33 µM
same,IC50,"[6]; Homo sapiens, KU812",0.61 µM
same,IC50,"[7]; Homo sapiens, MOLT-4",0.29 µM
same,IC50,"[8]; Homo sapiens, EOL1",0.09 µM
same,IC50,[9]; Homo sapiens,0.16 µM
same,IC50,[10]; Homo sapiens,0.58 µM
same,IC50,[11]; Homo sapiens,0.15 µM
same,IC50,"[12]; Homo sapiens, OCI-AML-3",0.19 µM
same,IC50,"[13]; Homo sapiens, U-937",0.07 µM
same,IC50,[14]; Homo sapiens,0.72 µM
same,IC50,[15]; Homo sapiens,0.14 µM
same,IC50,[16]; Homo sapiens,0.1 µM
N.N.O=C([O-])C1(C(=O)[O-])CCC1.[Pt+2] [carboplatin],effect of chemotherapeutics on HPC viability,"[4]; GM-CSF-primed, dose-dependent, Figure 5C",no effects
same,neutropenia in the clinic,[17],induce neutropenia in the clinic
same,effect of chemotherapeutics on neutrophil viability,[3],no effects
CC(=O)O[C@@]12CO[C@@H]1C[C@H](O)[C@@]1(C)C(=O)[C@H](O)C3=C(C)[C@@H](OC(=O)[C@H](O)[C@@H](NC(=O)OC(C)(C)C)c4ccccc4)C[C@@](O)([C@@H](OC(=O)c4ccccc4)[C@H]21)C3(C)C [docetaxel],effect of chemotherapeutics on HPC viability,[4],no effects
same,neutropenia in the clinic,[17],induce neutropenia in the clinic
same,effect of chemotherapeutics on neutrophil viability,[3],no effects
